# Measured values as given in patent publication US5280033A, “Substituted 1-(alkoxy-iminoalkyl) imidazole derivatives and their use in treating disease related to an enhancement of thromboxane-A2 syntheis” (Farmitalia Carlo Erba S RL, priority 1990, dated 1994).
# “Also recorded” adds a separate entry of the source.
# What was measured:
# [1] = target: T1, TxA2 receptor (washed human platelets) (Homo sapiens, UniProt P21731); assay: TxA2 antagonism, [^3H]-SQ 29,548 binding displacement in washed human platelets
# T1 construct: endogenous in cells; host or cells: washed platelets of healthy human volunteers
# T1 sequence (P21731 1-343): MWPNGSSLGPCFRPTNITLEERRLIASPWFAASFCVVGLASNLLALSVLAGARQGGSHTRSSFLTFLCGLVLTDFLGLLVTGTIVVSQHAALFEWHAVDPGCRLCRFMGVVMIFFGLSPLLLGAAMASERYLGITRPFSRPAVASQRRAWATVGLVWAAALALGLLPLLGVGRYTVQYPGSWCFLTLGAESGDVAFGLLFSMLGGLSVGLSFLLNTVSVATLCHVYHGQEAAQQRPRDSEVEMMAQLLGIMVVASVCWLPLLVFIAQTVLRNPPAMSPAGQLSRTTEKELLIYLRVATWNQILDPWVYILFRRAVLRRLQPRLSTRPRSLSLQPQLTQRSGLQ
# Description: Moreover the compounds of the invention were tested for TxA2 antagonism in a binding assay in washed human platelets, using as radiolabelled ligand [^3 H]-SQ 29,548.
# The experiments were carried out as follows: Blood from healthy volunteers of both sexes who had no taken any medication for at least 10 days is collected into one-tenth volume of acid citrate dextrose containing indomethacin (28 μM). Platelet rich plasma (PRP), obtained by centrifugation of the blood at 200×g for 20 min, is washed twice (1000×g for 10 min). The platelets are then resuspended in Tyrode-Hepes buffer (pH 7.4) to a final concentration of […] and incubated for 0-60 min at 25° with [^3 H]-SQ 29,548 (5 nM). For displacement experiments various concentrations (10^-9 -10^-4 M) of competing ligands were added and incubated for 30 min at 25° C.
# After the incubation, 4 ml of ice-cold TRIS-HCL buffer (10 mM, pH 7.4) was added to each tube and the reaction mixture was immediately filtered by suction through a Whatman […] glass filter disc which was washed 2 times with ice-cold TRIS-HCl (4 ml) and counted for radioactivity by a Packard-β-counter.
# [2] = target: T2, TxA2 Synthase (Rattus norvegicus, UniProt P49430); assay: TxA2 Synthase activity in vitro: TxB2 generated in whole blood during clotting (RRM rats); assay type: cell-based; conditions: for inhibitory activity on TxA2 synthesis (in words): in vitro, RRM rat whole blood / glomeruli; for IC50: whole blood of RRM rats, clotting 1 h at 37° C., n = 8, limits for p = 0.95, read-out: In vitro effects on T × B2 production, IC50, Whole Blood
# T2 construct: TxB2 generated in whole blood during clotting; from tissue; host or cells: rat whole blood, clotting (RRM rats)
# T2 sequence (P49430 1-533): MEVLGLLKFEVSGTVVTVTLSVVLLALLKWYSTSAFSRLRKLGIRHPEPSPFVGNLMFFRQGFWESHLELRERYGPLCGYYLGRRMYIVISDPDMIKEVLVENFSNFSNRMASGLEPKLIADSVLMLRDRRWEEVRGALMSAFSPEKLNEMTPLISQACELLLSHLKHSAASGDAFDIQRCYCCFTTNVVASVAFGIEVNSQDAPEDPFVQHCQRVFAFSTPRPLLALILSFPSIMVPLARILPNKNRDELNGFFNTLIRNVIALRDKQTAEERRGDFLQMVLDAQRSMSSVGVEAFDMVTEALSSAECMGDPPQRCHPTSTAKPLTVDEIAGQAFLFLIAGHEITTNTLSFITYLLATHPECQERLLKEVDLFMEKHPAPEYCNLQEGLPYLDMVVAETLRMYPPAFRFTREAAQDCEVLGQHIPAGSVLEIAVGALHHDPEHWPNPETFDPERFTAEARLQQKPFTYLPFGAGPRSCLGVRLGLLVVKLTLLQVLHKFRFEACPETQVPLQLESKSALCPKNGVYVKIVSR
# Description: (§1) The compounds of formula (I) were for example tested for their ability to inhibit TxA2 Synthase activity (as reflected by TxB2 generated in whole blood during clotting or in isolated glomeruli) in vitro in the rat.
# (§2) The in vitro experiments were carried out as follows: The effect of the compounds on TxA2 synthesis was evaluated in serum and in glomeruli isolated from kidney cortex of reduced renal mass rats (RRM). Ablation of >70% of renal mass in the rat results in hypertension, proteinuria and glomerular sclerosis of the remnant kidney. Rats with a remnant kidney have increased excretion of thromboxane in the urine when compared with normal rats (Purkerson et al., Proc. Natl. Acad. Sci. USA 82, 193, 1985).
# Blood was withdrawn from the abdominal aorta of the animals under light ether anesthesia.
# Samples were then allowed to clot for 1 h at 37° C., centrifuged at 3000 rpm for 10 min, serum collected and stored at -20° C. until assayed. TxB2 levels were determined by RIA according to previously described procedures [Patrono et al.-Thromb. Res. 17, 3/4, 317, 1980] using highly specific antibody.
# [3] = target: T2, TxA2 Synthase; assay: TxA2 Synthase activity in vitro: TxB2 production in isolated glomeruli (RRM rats); assay type: cell-based; conditions: isolated glomeruli of RRM rats, 1 h at 37° C., n = 6; limits for p = 0.95; read-out: In vitro effects on T × B2 production, IC50, Glomeruli
# Description: as §1, §2
# The isolated glomeruli of 4 rats were pooled, suspended in modified Krebs buffer (pH 7.3) and divided into portions of 1 ml each containing a concentration of the test compounds or of the reference compounds.
# [4] = target: T2, TxA2 Synthase; conditions: no test data given; cited from earlier work
"IC50 ([1]; [^3H]-SQ 29,548 5 nM, 30 min at 25° C.)",IC50 [2],IC50 [3],Compound,"affinity for the receptor (in words) ([1]; [^3H]-SQ 29,548 binding)",inhibitory activity on TxA2 synthesis (in words) [2],TxA2 synthase inhibitory activity of known compound (in words) [4]
190 nM,48.3 nM,,"O=C(O)CCCCO/N=C(\c1ccccc1)C(Cc1ccccc1)n1ccnc1 (racemic) [FCE 27109, (±) (E)-5-[1-phenyl-2-(imidazol-1-yl)-2-benzylethylidene]aminoxypentanoic acid]",good affinity for the receptor better than that showed by the known compound Sulotroban (BM 13177),marked inhibitory activity on TxA2 synthesis significantly more potent than that of reference compounds Dazoxiben and ASA; also recorded: active as TxA2 synthase inhibitor,
,23 nM,,"O=C(O)CCCCO/N=C(/c1ccccc1)C(Cc1ccccc1)n1ccnc1 (racemic) [FCE 27108, (±) (Z)-5-[1-phenyl-2-(imidazol-1-yl)-2-benzylethylidene]aminoxypentanoic acid]",,marked inhibitory activity on TxA2 synthesis significantly more potent than that of reference compounds Dazoxiben and ASA,
,19 nM,36 nM,"O=C(O)CCCCO/N=C(\Cn1ccnc1)C1CCCCC1 [FCE 26398, (Z)-5-[1-cyclohexyl-2-(imidazol-1-yl)-ethylidene]aminoxypentanoic acid]",,marked inhibitory activity on TxA2 synthesis significantly more potent than that of reference compounds Dazoxiben and ASA,

# Further lines, the compound ahead of its results:
Compound,"IC50 ([1]; [^3H]-SQ 29,548 5 nM, 30 min at 25° C.)",IC50 [2],IC50 [3],"affinity for the receptor (in words) ([1]; [^3H]-SQ 29,548 binding)",inhibitory activity on TxA2 synthesis (in words) [2],TxA2 synthase inhibitory activity of known compound (in words) [4]
"CC(=O)Oc1ccccc1C(=O)O [ASA, Acetylsalicylic acid, reference compound]",,42000 nM,,,,
"O=C(O)COc1ccc(CCNS(=O)(=O)c2ccccc2)cc1 [BM 13177, Sulotroban]",,,,,,devoid of TxA2 synthase inhibitory activity
